The results in this text go back to ChEMBL document CHEMBL1275563, “Genetic characterization of Vga ABC proteins conferring reduced susceptibility to pleuromutilins in Staphylococcus aureus” (2008).

Experiment [1] concerns Staphylococcus aureus. Nature of the experiment: microbe, parasite or virus in culture. As to conditions: ATCC 29213.
Description: Antimicrobial activity against Staphylococcus aureus ATCC 29213
The test system of experiment [2] is Staphylococcus aureus. Briefly: Antimicrobial activity against Staphylococcus aureus RN4220 harboring plasmid VGA.
Experiment [3] deals with Staphylococcus aureus. Briefly: Antimicrobial activity against Staphylococcus aureus RN1024. It counts as functional.
In experiment [4] the test system is Staphylococcus aureus. Nature of the experiment: Antimicrobial activity against Staphylococcus aureus RN4220 harboring plasmid CU1.
Experiment [5] deals with Staphylococcus aureus. Nature of the experiment: Antimicrobial activity against Staphylococcus aureus RN4220. It counts as functional.
The test system of experiment [6] is Staphylococcus aureus. Briefly: Antimicrobial activity against Staphylococcus aureus RN4220 harboring vgaAv positive plasmid CU1.
Experiment [7] relates to Staphylococcus aureus. Briefly: Antimicrobial activity against Staphylococcus aureus RN1024-tms. Format: functional.
For experiment [8], the system named is Staphylococcus aureus. Nature of the experiment: Antimicrobial activity against Staphylococcus aureus IHMA127277 harboring vgaAv positive Tn5406 transposon. It counts as functional.
The subject of experiment [9] is Staphylococcus aureus. Nature of the experiment: Antimicrobial activity against Staphylococcus aureus IV20205004 harboring vgaAv positive Tn5406 transposon. Format: functional.
For experiment [10], the system named is Staphylococcus aureus. Nature of the experiment: Antimicrobial activity against Staphylococcus aureus IV20217033 harboring vgaA positive plasmid VGA. It counts as functional.
Experiment [11] deals with Staphylococcus aureus. Nature of the experiment: Antimicrobial activity against Staphylococcus aureus IV20204009 harboring vgaAv positive Tn5406 transposon. It counts as functional.
Experiment [12] deals with Staphylococcus aureus. Briefly: Antimicrobial activity against Staphylococcus aureus IV20217008 harboring vgaAv positive Tn5406 transposon. Format: functional.
The subject of experiment [13] is Staphylococcus aureus. Nature of the experiment: Antimicrobial activity against Staphylococcus aureus IV20222009 harboring vgaAv positive Tn5406 transposon. It counts as functional.

In brackets after ≈: the same amount, converted by molar mass. Numbered stars: 1 amine (or outer) side, 2 acyl side, 3 side chain; on linkers, the order of the positions; unused ones are H or OH. Bridge positions count the residues as written; N and C are the ends. Square brackets hold non-standard residues; d marks the D form. Peptide text beside a SMILES is read from it. * marks the point of attachment. X1 = O=C1C[C@@H](C(=O)[*:2])N([*:1])C[C@H]1CS[C@@H]1CN2CCC1CC2; NMePhe(4-NMe2) = CN[C@@H](Cc1ccc(N(C)C)cc1)C(=O)O; Picolinoyl(3-OH) = O=C(c1ncccc1O)*; Phg = N[C@H](C(=O)O)c1ccccc1; dAbu = CC[C@@H](N)C(=O)O

As to `COc1cc(Cc2cnc(N)nc2N)cc(OC)c1OC` [TRIMETHOPRIM], the MIC with Staphylococcus aureus [1], against Staphylococcus aureus [2], against Staphylococcus aureus [3], against Staphylococcus aureus [4], against Staphylococcus aureus [5] and in the experiment on Staphylococcus aureus [6] was 2 µg/mL (≈ 6.89 µM) in each case. The same compound had an MIC against Staphylococcus aureus [7] of 2 µg/mL (≈ 6.89 µM).

For the compound `CC(=O)NC[C@H]1CN(c2ccc(N3CCOCC3)c(F)c2)C(=O)O1` [LINEZOLID], the MIC in the experiment on Staphylococcus aureus [6] was 1 µg/mL (≈ 2.96 µM).

`O=C(N[C@H](CO)[C@H](O)c1ccc([N+](=O)[O-])cc1)C(Cl)Cl` [CHLORAMPHENICOL]: the MIC in the experiment on Staphylococcus aureus [1] was 16 µg/mL (≈ 49.5 µM); in the experiment with Staphylococcus aureus [2] it was 8 µg/mL (≈ 24.8 µM); with Staphylococcus aureus [3], 8 µg/mL (≈ 24.8 µM); with Staphylococcus aureus [4], above 64 µg/mL; against Staphylococcus aureus [5], 8 µg/mL (≈ 24.8 µM); in the experiment with Staphylococcus aureus [6] it was above 64 µg/mL. In the experiment with Staphylococcus aureus [7], the MIC is 8 µg/mL (≈ 24.8 µM).

In the case of `C=C[C@]1(C)C[C@@H](OC(=O)CS[C@@H]2C[C@H]3CC[C@@H](C2)N3C)[C@]2(C)[C@H](C)CC[C@]3(CCC(=O)[C@H]32)[C@@H](C)[C@@H]1O` [RETAPAMULIN], the MIC against Staphylococcus aureus [1] is at most 0.06 µg/mL; in the experiment on Staphylococcus aureus [8], 2 µg/mL (≈ 3.86 µM); against Staphylococcus aureus [2], 32 µg/mL (≈ 61.8 µM); in the experiment with Staphylococcus aureus [3] it was 2 µg/mL (≈ 3.86 µM); against Staphylococcus aureus [9] it was 2 µg/mL (≈ 3.86 µM); with Staphylococcus aureus [5], at most 0.06 µg/mL. Also, the MIC was 64 µg/mL (≈ 124 µM) in the experiment with Staphylococcus aureus [10]; 32 µg/mL (≈ 61.8 µM) against Staphylococcus aureus [6]; 2 µg/mL (≈ 3.86 µM) against Staphylococcus aureus [11]; 4 µg/mL (≈ 7.73 µM) against Staphylococcus aureus [12]; at most 0.06 µg/mL in the experiment with Staphylococcus aureus [7]; 4 µg/mL (≈ 7.73 µM) against Staphylococcus aureus [13].

`C=C[C@]1(C)C[C@@H](OC(=O)CSCCN(CC)CC)[C@]2(C)[C@H](C)CC[C@]3(CCC(=O)[C@H]32)[C@@H](C)[C@@H]1O` [TIAMULIN]: the MIC with Staphylococcus aureus [1] is 1 µg/mL (≈ 2.03 µM); in the experiment on Staphylococcus aureus [2] it was above 64 µg/mL; against Staphylococcus aureus [3], 16 µg/mL (≈ 32.4 µM); with Staphylococcus aureus [4], 0.25 µg/mL (≈ 0.506 µM); against Staphylococcus aureus [9] it was 16 µg/mL (≈ 32.4 µM); with Staphylococcus aureus [5], 0.5 µg/mL (≈ 1.01 µM). The MIC was above 64 µg/mL in the experiment with Staphylococcus aureus [10]; above 64 µg/mL in the experiment on Staphylococcus aureus [6]; 32 µg/mL (≈ 64.8 µM) against Staphylococcus aureus [11]; 32 µg/mL (≈ 64.8 µM) in the experiment on Staphylococcus aureus [12]; 0.5 µg/mL (≈ 1.01 µM) against Staphylococcus aureus [7]; 16 µg/mL (≈ 32.4 µM) in the experiment with Staphylococcus aureus [13].

On to `CC[C@H]1NC(=O)[C@@H](NC(=O)c2ncccc2O)[C@@H](C)OC(=O)[C@H](c2ccccc2)NC(=O)[C@@H]2CC(=O)[C@H](CS[C@@H]3CN4CCC3CC4)CN2C(=O)[C@H](Cc2ccc(N(C)C)cc2)N(C)C(=O)[C@@H]2CCCN2C1=O` [QUINUPRISTIN] ({Picolinoyl(3-OH)}-T[dAbu]P[NMePhe(4-NMe2)][X1][Phg]; ester 1-C), for which the MIC with Staphylococcus aureus [1] was determined as 4 µg/mL (≈ 3.91 µM); with Staphylococcus aureus [2], 4 µg/mL (≈ 3.91 µM); with Staphylococcus aureus [3], 4 µg/mL (≈ 3.91 µM); against Staphylococcus aureus [4] it was 4 µg/mL (≈ 3.91 µM); with Staphylococcus aureus [5], 4 µg/mL (≈ 3.91 µM); with Staphylococcus aureus [6], 1 µg/mL (≈ 0.978 µM). In the experiment on Staphylococcus aureus [7], this compound came in with an MIC of 4 µg/mL (≈ 3.91 µM).

Regarding GENTAMICIN, the values for the MIC against Staphylococcus aureus [3], in the experiment on Staphylococcus aureus [5] and against Staphylococcus aureus [7] were above 64 µg/mL, 1 µg/mL and above 64 µg/mL, respectively.

For `CCC[C@@H]1C[C@@H](C(=O)N[C@@H]([C@H]2O[C@H](SC)[C@H](O)[C@@H](O)[C@H]2O)[C@@H](C)O)N(C)C1` [LINCOMYCIN], the MIC was 2 µg/mL (≈ 4.92 µM) in the experiment with Staphylococcus aureus [1]; 32 µg/mL (≈ 78.7 µM) in the experiment on Staphylococcus aureus [2]; 8 µg/mL (≈ 19.7 µM) in the experiment on Staphylococcus aureus [3]; 0.5 µg/mL (≈ 1.23 µM) against Staphylococcus aureus [4]; 0.5 µg/mL (≈ 1.23 µM) with Staphylococcus aureus [5]; 32 µg/mL (≈ 78.7 µM) against Staphylococcus aureus [6]. Also, the MIC in the experiment on Staphylococcus aureus [7] came out at 1 µg/mL (≈ 2.46 µM).

On to `CO[C@H]1/C=C/O[C@@]2(C)Oc3c(C)c(O)c4c(O)c(c(/C=N/N5CCN(C)CC5)c(O)c4c3C2=O)NC(=O)/C(C)=C\C=C\[C@H](C)[C@H](O)[C@@H](C)[C@@H](O)[C@@H](C)[C@H](OC(C)=O)[C@@H]1C` [RIFAMPIN], for which the MIC is below 0.06 µg/mL in the experiment with Staphylococcus aureus [1], above 64 µg/mL with Staphylococcus aureus [3], at most 0.06 µg/mL against Staphylococcus aureus [5] and above 64 µg/mL against Staphylococcus aureus [7].

Turning to `CCC[C@@H]1C[C@@H](C(=O)N[C@@H]([C@H]2O[C@H](SC)[C@H](O)[C@@H](O)[C@H]2O)[C@H](C)Cl)N(C)C1` [CLINDAMYCIN], the MIC against Staphylococcus aureus [1] was found to be 0.125 µg/mL (≈ 0.294 µM); against Staphylococcus aureus [2] it was 4 µg/mL (≈ 9.41 µM); against Staphylococcus aureus [3], 0.25 µg/mL (≈ 0.588 µM); with Staphylococcus aureus [4], 0.06 µg/mL (≈ 0.141 µM); against Staphylococcus aureus [5], 0.06 µg/mL (≈ 0.141 µM); in the experiment on Staphylococcus aureus [6] it was 2 µg/mL (≈ 4.71 µM). This compound also showed an MIC against Staphylococcus aureus [7] of 0.06 µg/mL (≈ 0.141 µM).

In the case of `C[C@H]1COc2c(N3CCN(C)CC3)c(F)cc3c(=O)c(C(=O)O)cn1c23.C[C@H]1COc2c(N3CCN(C)CC3)c(F)cc3c(=O)c(C(=O)O)cn1c23.O` [LEVOFLOXACIN], the MIC in the experiment with Staphylococcus aureus [1] is 0.125 µg/mL; in the experiment on Staphylococcus aureus [2] it was 0.125 µg/mL; against Staphylococcus aureus [3], 16 µg/mL; against Staphylococcus aureus [4], 0.125 µg/mL; in the experiment with Staphylococcus aureus [5], 0.125 µg/mL; in the experiment on Staphylococcus aureus [6], 0.125 µg/mL. Moreover, in the experiment on Staphylococcus aureus [7], the MIC worked out at 32 µg/mL.

Take `C/C(=C\C(=O)OCCCCCCCCC(=O)O)C[C@@H]1OC[C@H](C[C@@H]2O[C@H]2[C@@H](C)[C@H](C)O)[C@@H](O)[C@H]1O` [MUPIROCIN]: the MIC is 0.25 µg/mL (≈ 0.499 µM) with Staphylococcus aureus [1], 0.25 µg/mL (≈ 0.499 µM) against Staphylococcus aureus [3], at most 0.06 µg/mL in the experiment with Staphylococcus aureus [5] and 0.25 µg/mL (≈ 0.499 µM) in the experiment on Staphylococcus aureus [7].

In the case of `CN(C)[C@@H]1C(O)=C(C(N)=O)C(=O)[C@@]2(O)C(O)=C3C(=O)c4c(O)cccc4[C@@](C)(O)[C@H]3C[C@@H]12` [TETRACYCLINE], the MIC was found to be 0.5 µg/mL (≈ 1.13 µM) against Staphylococcus aureus [1]; 64 µg/mL (≈ 144 µM) in the experiment with Staphylococcus aureus [3]; 0.25 µg/mL (≈ 0.563 µM) with Staphylococcus aureus [4]; 0.25 µg/mL (≈ 0.563 µM) against Staphylococcus aureus [5]; 0.125 µg/mL (≈ 0.281 µM) in the experiment with Staphylococcus aureus [6]; 64 µg/mL (≈ 144 µM) against Staphylococcus aureus [7].

`CCN(CC)CCS(=O)(=O)[C@@H]1CCN2C(=O)c3coc(n3)CC(=O)C[C@H](O)/C=C(C)/C=C/CNC(=O)/C=C/[C@@H](C)[C@@H](C(C)C)OC(=O)[C@@H]12` [DALFOPRISTIN]: the MIC in the experiment with Staphylococcus aureus [1] came to 8 µg/mL (≈ 11.6 µM); in the experiment on Staphylococcus aureus [2], 32 µg/mL (≈ 46.3 µM); against Staphylococcus aureus [3], 64 µg/mL (≈ 92.6 µM); with Staphylococcus aureus [4], 4 µg/mL (≈ 5.79 µM); in the experiment on Staphylococcus aureus [5], 4 µg/mL (≈ 5.79 µM); in the experiment with Staphylococcus aureus [6], 64 µg/mL (≈ 92.6 µM). This compound also showed an MIC against Staphylococcus aureus [7] of 8 µg/mL (≈ 11.6 µM).

On to `CC[C@H]1OC(=O)[C@H](C)[C@@H](O[C@H]2C[C@@](C)(OC)[C@@H](O)[C@H](C)O2)[C@H](C)[C@@H](O[C@@H]2O[C@H](C)C[C@H](N(C)C)[C@H]2O)[C@](C)(O)C[C@@H](C)C(=O)[C@H](C)[C@@H](O)[C@]1(C)O` [ERYTHROMYCIN], for which the MIC came to 0.5 µg/mL (≈ 0.681 µM) in the experiment with Staphylococcus aureus [1]; 0.25 µg/mL (≈ 0.341 µM) in the experiment on Staphylococcus aureus [2]; 0.25 µg/mL (≈ 0.341 µM) against Staphylococcus aureus [3]; 0.25 µg/mL (≈ 0.341 µM) against Staphylococcus aureus [4]; 0.25 µg/mL (≈ 0.341 µM) against Staphylococcus aureus [5]; 0.125 µg/mL (≈ 0.17 µM) in the experiment on Staphylococcus aureus [6]. In the experiment with Staphylococcus aureus [7], this compound had an MIC of 0.25 µg/mL (≈ 0.341 µM).
